In US8592172B2, “Bioluminescent assays using cyanobenzothiazole compounds” (Promega Corporation, priority 2010, dated 2013):

Tests used:
[1] = molecular target: Human recombinant CYP450 1A2 (Homo sapiens, UniProt P05177)
Experimental: (§1) Equal volumes of P450-Glo LDR with 6.6 mM D-Cysteine was added into the CYP450 reactions.

[2] = system: CYP450 1A2 activity in human liver microsomes; assay: Human liver microsome assay with compound 3019
Experimental: as §1

[3] = system: CYP1A2; assay: Non-lytic cell-based assay with human hepatocytes, compound 3019; conditions: non-lytic, 3 μM compound 3019, 1 hour
Experimental: Human cryopreserved hepatocytes (Celsis lot RTM) were thawed and seeded in hepatocyte culture medium in wells of a collagen-coated, 96-well culture plate at ˜70,000 cells per well and kept at 37° C. in standard cell culture incubator with 5% CO2. The cells were then treated for 48 hours with 100 μM omeprazole or vehicle control (0.1% dimethylsulfoxide) dissolved in hepatocytes culture medium (n═3 for each treatment, mean values and standard deviations are shown). […] 50 μl of the KH incubation buffer was then removed from each well and transferred to a well of a white, 96-well luminometer plate (Costar) where it was also combined with 50 μl of P450-Glo LDR containing 6.6 mM D-cysteine.

[4] = molecular target: T1, UGT 1A6 (Homo sapiens, UniProt P19224); assay: Recombinant UGT panel, substrate utilization; format: biochemical; conditions: 2 hour incubation at 37° C., recombinant Supersomes
T1 construct: purchased BD Gentest; host or cells: insect cells (microsomes)
Experimental: (§2) During this incubation, the cysteine reacts with the cyanobenzathiozole substrate to yield a D-luciferin derivative. […] Therefore, activity of the UGT enzyme can be measured by analyzing the difference (lower or no output) in relative light units (RLU) of a sample in which glucuronidation occurs compared to a sample that was run under the same conditions with no added UDPGA cofactor.
(§3) In this example, a series of 12 recombinant UGTs expressed in insect microsomes (Supersomes™, BD Gentest™), as well as the control microsomes not expressing the UGT enzyme, were incubated with compound 3138, compound 3478, or compound 3165 as substrates, with or without the UDPGA co-factor.
(§4) After addition of a luciferin detection reagent (LDR) containing D-cysteine, both the substrate and the product were converted to D-luciferins (compound 3478 is already a luciferin derivative before addition of the LDR).
(§5) Reactions were assembled in a white, 96-well plate. Each well contained 20 μL of reaction mixture comprised of 100 mM TES, pH 7.5, 16 mM MgCl2, 50 μg/mL alamethicin (Sigma), 60 μM compound 3138 or compound 3478, and 0.4 mg/mL of control or recombinant UGT membranes. The reactions were initiated by addition of 20 μL of water or 8 mM triammonium UDPGA (Sigma) to each well. The plate was mixed, sealed, and incubated in a 37° C. water bath for 2 hours. After the incubation, 40 μL P450-Glo LDR (Promega) with 20 mM D-cysteine-HCl.H2O (Sigma) was added to each well, the plate was mixed and allowed to incubate at room temperature for 20 minutes. After the incubation was completed, the plate was read on a Veritas™ luminometer (Turner BioSystems, Inc.; Sunnyvale, Calif.).
(§6) For each isozyme, the bioluminescence from the replicates containing UDPGA were subtracted from the average bioluminescence of the replicates without UDPGA. The average Δ RLU value obtained and the standard deviation of the replicates were then divided by the average bioluminescence for samples without UDPGA to obtain the % utilization for each isozyme. The % utilization obtained from the control microsomes was then subtracted from each isozyme to give the background corrected utilization data for those isozymes.

[5] = molecular target: T2, UGT 2B4 (Homo sapiens, UniProt P06133); assay: Recombinant UGT panel, substrate utilization; format: biochemical; conditions: 2 hour incubation at 37° C., recombinant Supersomes
T2 construct: purchased BD Gentest; host or cells: insect cells (microsomes)
Experimental: as §2, §3, §4, §5, §6

[6] = molecular target: T3, UGT 1A3 (Homo sapiens, UniProt P35503); assay: Recombinant UGT panel, substrate utilization; format: biochemical; conditions: 2 hour incubation at 37° C., recombinant Supersomes
T3 construct: purchased BD Gentest; host or cells: insect cells (microsomes)
Experimental: as §2, §3, §4, §5, §6

[7] = molecular target: T4, UGT 2B17 (Homo sapiens, UniProt O75795); assay: Recombinant UGT panel, substrate utilization; format: biochemical; conditions: 2 hour incubation at 37° C., recombinant Supersomes
T4 construct: purchased BD Gentest; host or cells: insect cells (microsomes)
Experimental: as §2, §3, §4, §5, §6

[8] = molecular target: T5, UGT 1A1 (Homo sapiens, UniProt P22309); assay: Recombinant UGT panel, substrate utilization; format: biochemical; conditions: 2 hour incubation at 37° C., recombinant Supersomes, background corrected
T5 construct: purchased BD Gentest; host or cells: insect cells (microsomes)
T5 sequence (P22309 26-533): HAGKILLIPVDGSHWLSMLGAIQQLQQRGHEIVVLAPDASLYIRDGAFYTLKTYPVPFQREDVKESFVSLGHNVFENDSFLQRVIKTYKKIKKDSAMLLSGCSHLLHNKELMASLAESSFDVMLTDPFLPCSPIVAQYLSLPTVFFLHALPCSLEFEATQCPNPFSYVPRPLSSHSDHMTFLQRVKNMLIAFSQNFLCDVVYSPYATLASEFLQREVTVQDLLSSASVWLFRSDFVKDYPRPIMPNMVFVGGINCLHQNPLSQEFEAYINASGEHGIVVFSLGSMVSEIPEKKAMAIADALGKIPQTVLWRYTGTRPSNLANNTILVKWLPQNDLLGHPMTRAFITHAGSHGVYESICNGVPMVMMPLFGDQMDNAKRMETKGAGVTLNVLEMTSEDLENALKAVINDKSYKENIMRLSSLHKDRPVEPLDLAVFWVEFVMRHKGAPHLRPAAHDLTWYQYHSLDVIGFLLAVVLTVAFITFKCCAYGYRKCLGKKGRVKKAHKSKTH
Experimental: as §2, §3, §4, §5, §6

[9] = molecular target: T6, UGT 1A7 (Homo sapiens, UniProt Q9HAW7); assay: Recombinant UGT panel, substrate utilization; format: biochemical; conditions: 2 hour incubation at 37° C., recombinant Supersomes
T6 construct: purchased BD Gentest; host or cells: insect cells (microsomes)
Experimental: as §2, §3, §4, §5, §6

[10] = molecular target: T7, UGT 1A4 (Homo sapiens, UniProt P22310); assay: Recombinant UGT panel, substrate utilization; format: biochemical; conditions: 2 hour incubation at 37° C., recombinant Supersomes
T7 construct: purchased BD Gentest; host or cells: insect cells (microsomes)
T7 sequence (P22310 29-534): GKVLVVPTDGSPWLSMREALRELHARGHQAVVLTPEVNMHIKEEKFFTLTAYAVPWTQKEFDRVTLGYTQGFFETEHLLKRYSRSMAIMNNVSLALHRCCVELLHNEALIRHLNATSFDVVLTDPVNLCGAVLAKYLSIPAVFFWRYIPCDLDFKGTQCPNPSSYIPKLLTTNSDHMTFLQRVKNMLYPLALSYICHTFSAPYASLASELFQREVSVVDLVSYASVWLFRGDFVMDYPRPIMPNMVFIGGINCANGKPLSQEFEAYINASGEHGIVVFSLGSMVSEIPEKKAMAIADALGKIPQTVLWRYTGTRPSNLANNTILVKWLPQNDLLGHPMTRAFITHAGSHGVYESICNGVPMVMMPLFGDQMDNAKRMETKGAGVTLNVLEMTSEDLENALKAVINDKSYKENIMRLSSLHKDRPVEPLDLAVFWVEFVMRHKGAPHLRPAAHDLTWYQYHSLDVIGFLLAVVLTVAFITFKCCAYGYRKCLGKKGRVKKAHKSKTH
Experimental: as §2, §3, §4, §5, §6

[11] = molecular target: T8, UGT 2B15 (Homo sapiens, UniProt P54855); assay: Recombinant UGT panel, substrate utilization; format: biochemical; conditions: 2 hour incubation at 37° C., recombinant Supersomes
T8 construct: purchased BD Gentest; host or cells: insect cells (microsomes)
Experimental: as §2, §3, §4, §5, §6

[12] = molecular target: T9, UGT 1A10 (Homo sapiens, UniProt Q9HAW8); assay: Recombinant UGT panel, substrate utilization; format: biochemical; conditions: 2 hour incubation at 37° C., recombinant Supersomes, background corrected
T9 construct: purchased BD Gentest; host or cells: insect cells (microsomes)
Experimental: as §2, §3, §4, §5, §6

[13] = molecular target: T10, UGT 1A9 (Homo sapiens, UniProt O60656); assay: Recombinant UGT panel, substrate utilization; format: biochemical; conditions: 2 hour incubation at 37° C., recombinant Supersomes, background corrected
T10 construct: purchased BD Gentest; host or cells: insect cells (microsomes)
T10 sequence (O60656 26-530): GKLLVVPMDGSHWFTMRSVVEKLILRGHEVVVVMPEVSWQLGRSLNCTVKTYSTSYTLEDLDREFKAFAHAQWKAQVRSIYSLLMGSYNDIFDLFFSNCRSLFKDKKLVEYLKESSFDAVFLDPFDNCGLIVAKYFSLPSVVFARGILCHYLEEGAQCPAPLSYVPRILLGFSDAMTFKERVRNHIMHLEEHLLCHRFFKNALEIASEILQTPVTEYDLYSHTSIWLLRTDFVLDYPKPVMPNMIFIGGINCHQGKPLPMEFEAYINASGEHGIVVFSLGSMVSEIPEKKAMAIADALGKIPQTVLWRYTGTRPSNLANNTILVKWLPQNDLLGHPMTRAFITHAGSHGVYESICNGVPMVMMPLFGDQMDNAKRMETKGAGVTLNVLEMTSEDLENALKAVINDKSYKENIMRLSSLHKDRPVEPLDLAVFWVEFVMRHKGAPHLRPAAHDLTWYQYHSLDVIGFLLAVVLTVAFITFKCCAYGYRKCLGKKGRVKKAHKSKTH
Experimental: as §2, §3, §4, §5, §6

[14] = molecular target: T11, UGT 1A8 (Homo sapiens, UniProt Q9HAW9); assay: Recombinant UGT panel, substrate utilization; format: biochemical; conditions: 2 hour incubation at 37° C., recombinant Supersomes, background corrected
T11 construct: purchased BD Gentest; host or cells: insect cells (microsomes)
Experimental: as §2, §3, §4, §5, §6

[15] = system: endogenously expressed UGT isozymes in mammalian microsomes; assay: Utilization of compound 3138 by mammalian tissue microsomes; format: biochemical; conditions: 50 μM compound 3138, 0.1 mg/mL mammalian microsomes, 15 minutes at 37° C.
Experimental: The ability of endogenously expressed UGT isozymes to utilize compounds 3138 and 3165 as substrates was determined in a similar manner to the assays with recombinant microsomes (Example 1). […] Tissue microsomes were obtained from Xenotech LLC or BD Gentest. Addition of P450-Glo LDR plus cysteine and data analysis was performed in the same manner as for the recombinant Supersome panel screen (Example 1 above).

[16] = molecular target: UGT 2B7 (Homo sapiens, UniProt P16662); assay: Recombinant UGT panel, substrate utilization; format: biochemical; parameters: purchased BD Gentest; host or cells: insect cells (microsomes); conditions: 2 hour incubation at 37° C., recombinant Supersomes, background corrected
Experimental: as §2, §3, §4
Reactions were assembled in a white, 96-well plate. Each well contained 20 μL of reaction mixture comprised of 100 mM TES, pH 7.5, 16 mM MgCl2, 50 μg/mL alamethicin (Sigma), 60 μM compound 3138 or compound 3478, and 0.4 mg/mL of control or recombinant UGT membranes. The reactions were initiated by addition of 20 μL of water or 8 mM triammonium UDPGA (Sigma) to each well. […] After the incubation was completed, the plate was read on a Veritas™ luminometer (Turner BioSystems, Inc.; Sunnyvale, Calif.). […]

[17] = system: UGT isozymes in human hepatocytes; conditions: compound 3138, 15-20 minutes at 37° C.

T11 sequence (Q9HAW9 26-530): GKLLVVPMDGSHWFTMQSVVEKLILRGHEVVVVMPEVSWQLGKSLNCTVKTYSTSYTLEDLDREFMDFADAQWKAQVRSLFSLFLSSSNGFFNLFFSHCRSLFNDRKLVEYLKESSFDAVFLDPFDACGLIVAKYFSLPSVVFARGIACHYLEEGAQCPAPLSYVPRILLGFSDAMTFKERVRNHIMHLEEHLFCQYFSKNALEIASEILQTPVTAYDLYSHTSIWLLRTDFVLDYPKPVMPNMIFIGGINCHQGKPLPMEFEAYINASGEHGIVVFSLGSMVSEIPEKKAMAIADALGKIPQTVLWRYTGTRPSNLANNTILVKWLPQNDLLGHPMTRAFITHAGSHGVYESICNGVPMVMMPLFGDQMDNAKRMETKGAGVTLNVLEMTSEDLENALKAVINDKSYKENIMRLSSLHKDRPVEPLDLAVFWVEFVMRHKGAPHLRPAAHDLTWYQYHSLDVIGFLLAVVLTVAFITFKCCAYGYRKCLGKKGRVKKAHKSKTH
T8 sequence (P54855 24-530): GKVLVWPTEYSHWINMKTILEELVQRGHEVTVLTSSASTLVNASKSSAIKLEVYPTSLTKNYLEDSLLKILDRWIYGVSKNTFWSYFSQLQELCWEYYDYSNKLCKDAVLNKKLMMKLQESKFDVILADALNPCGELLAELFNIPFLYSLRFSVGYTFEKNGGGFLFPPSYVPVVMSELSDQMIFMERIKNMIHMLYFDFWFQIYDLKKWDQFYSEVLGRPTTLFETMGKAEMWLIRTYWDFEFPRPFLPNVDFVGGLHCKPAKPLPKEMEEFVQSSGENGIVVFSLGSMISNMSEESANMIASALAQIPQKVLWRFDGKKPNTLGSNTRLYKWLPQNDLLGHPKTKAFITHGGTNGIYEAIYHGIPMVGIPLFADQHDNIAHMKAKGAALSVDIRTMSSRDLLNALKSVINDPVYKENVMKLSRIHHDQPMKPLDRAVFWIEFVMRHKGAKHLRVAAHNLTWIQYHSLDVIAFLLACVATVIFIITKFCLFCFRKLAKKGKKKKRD
T1 sequence (P19224 27-532): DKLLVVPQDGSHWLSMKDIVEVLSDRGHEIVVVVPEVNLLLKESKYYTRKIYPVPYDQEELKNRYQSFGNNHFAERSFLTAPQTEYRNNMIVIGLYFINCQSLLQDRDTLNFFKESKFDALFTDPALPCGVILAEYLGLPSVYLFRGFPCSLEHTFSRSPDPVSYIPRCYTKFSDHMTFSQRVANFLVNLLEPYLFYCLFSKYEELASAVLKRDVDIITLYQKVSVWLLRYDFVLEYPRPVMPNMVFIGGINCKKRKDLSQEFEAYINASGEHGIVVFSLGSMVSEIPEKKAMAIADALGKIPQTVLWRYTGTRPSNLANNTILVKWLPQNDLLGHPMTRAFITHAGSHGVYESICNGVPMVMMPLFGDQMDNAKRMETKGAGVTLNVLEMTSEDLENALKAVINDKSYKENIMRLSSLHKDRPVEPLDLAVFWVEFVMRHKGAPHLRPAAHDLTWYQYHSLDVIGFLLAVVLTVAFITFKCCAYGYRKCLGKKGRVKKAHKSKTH
T2 sequence (P06133 24-528): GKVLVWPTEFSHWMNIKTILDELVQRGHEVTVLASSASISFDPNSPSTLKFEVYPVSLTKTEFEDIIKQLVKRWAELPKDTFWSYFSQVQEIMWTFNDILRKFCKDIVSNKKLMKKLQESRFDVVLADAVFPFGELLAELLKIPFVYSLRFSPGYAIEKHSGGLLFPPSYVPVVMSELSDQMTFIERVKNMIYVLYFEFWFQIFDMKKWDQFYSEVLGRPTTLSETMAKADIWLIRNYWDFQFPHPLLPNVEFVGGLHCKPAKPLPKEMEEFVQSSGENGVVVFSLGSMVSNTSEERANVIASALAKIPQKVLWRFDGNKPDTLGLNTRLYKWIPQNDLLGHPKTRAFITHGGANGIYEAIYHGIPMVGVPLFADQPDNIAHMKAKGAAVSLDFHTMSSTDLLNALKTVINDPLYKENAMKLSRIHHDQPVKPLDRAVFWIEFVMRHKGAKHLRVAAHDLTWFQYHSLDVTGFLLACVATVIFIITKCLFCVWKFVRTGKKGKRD
T3 sequence (P35503 29-534): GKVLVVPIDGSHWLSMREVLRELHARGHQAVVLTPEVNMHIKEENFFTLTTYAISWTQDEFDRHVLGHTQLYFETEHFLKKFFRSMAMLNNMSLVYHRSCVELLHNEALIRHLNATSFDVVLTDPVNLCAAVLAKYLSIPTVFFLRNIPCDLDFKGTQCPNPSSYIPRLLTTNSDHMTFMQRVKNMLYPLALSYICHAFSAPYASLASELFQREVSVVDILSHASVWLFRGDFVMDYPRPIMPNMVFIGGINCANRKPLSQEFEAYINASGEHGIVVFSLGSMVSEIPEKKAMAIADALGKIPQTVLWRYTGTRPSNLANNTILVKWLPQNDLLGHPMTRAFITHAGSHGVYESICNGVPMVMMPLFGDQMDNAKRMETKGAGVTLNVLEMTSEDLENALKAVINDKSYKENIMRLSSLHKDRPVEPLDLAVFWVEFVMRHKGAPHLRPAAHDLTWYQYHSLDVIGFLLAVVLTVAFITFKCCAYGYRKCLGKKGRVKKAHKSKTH
Chain of Human recombinant CYP450 1A2 (P05177 whole entry): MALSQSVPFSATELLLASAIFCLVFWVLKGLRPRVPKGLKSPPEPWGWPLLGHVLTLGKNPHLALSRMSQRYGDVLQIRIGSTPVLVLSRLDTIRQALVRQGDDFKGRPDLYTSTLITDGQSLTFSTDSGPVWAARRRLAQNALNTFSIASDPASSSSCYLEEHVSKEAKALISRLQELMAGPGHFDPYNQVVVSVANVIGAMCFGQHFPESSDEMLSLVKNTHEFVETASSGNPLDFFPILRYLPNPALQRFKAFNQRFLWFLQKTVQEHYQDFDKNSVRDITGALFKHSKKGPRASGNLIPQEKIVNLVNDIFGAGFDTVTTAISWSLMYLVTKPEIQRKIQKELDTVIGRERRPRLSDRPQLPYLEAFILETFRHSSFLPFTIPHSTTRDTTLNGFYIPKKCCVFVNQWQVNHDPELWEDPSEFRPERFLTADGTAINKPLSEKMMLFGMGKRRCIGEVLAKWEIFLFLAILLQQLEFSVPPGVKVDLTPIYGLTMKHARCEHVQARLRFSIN
T6 sequence (Q9HAW7 26-530): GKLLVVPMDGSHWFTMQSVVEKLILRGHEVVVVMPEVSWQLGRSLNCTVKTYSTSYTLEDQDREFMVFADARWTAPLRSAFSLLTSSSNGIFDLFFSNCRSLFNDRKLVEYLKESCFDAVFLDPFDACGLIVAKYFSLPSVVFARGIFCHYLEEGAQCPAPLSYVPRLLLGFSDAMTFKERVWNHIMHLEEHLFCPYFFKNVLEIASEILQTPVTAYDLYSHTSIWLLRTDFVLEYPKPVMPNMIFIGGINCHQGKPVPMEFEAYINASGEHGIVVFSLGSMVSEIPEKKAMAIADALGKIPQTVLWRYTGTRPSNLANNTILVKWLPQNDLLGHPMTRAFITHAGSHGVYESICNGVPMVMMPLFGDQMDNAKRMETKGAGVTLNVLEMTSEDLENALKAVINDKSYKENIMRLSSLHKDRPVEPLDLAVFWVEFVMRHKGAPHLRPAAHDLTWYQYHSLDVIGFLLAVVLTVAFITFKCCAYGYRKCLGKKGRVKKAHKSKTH
T9 sequence (Q9HAW8 26-530): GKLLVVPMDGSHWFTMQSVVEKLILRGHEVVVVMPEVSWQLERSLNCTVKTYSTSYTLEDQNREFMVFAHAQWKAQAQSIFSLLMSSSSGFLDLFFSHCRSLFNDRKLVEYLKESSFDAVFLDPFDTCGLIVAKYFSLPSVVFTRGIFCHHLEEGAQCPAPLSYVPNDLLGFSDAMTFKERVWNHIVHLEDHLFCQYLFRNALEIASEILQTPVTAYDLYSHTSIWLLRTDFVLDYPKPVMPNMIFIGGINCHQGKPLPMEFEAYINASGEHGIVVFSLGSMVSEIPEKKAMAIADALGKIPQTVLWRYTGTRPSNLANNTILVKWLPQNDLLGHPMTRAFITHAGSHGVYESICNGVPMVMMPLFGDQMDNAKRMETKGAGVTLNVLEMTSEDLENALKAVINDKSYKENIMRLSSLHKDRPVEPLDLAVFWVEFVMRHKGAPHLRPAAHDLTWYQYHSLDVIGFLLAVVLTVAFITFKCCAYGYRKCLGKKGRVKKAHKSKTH
T4 sequence (O75795 24-530): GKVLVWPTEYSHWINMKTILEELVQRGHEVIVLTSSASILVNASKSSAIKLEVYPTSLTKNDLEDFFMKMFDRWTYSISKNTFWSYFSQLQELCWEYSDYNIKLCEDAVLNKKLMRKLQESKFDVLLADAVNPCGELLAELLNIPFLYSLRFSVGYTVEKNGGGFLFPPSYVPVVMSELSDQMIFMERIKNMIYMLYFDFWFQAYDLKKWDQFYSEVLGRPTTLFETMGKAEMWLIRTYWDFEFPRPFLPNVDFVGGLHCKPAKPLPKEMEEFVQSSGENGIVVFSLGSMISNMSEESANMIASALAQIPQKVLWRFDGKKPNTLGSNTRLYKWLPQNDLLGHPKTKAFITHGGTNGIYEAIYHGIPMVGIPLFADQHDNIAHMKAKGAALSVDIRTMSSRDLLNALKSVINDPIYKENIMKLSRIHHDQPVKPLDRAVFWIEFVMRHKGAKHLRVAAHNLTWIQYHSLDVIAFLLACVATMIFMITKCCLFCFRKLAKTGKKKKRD

CC(C)OC(OC(C)C)C1CSC(c2nc3ccc(O)cc3s2)=N1 (centres unmarked) [Compound 3019]
substrate status for CYP450 1A2 [1]: is indeed a CYP450 1A2 substrate | activity with compound 3019 in human liver microsomes [2]: substantial activity | entry of substrate into cells [3]: entered the cell

Cc1cc(O)cc2sc(C#N)nc12 [Compound 3138]
utilization of substrate by UGT 1A6 [4]: detectable levels of utilization above background | utilization of substrate by UGT 2B4 [5]: did not utilize either compound 3138 or 3478 to an appreciable extent | utilization of substrate by UGT 1A3 [6]: detectable levels of utilization above background | utilization of substrate by UGT 2B17 [7]: detectable levels of utilization above background | % utilization of substrate by UGT 1A1 [8]: over 50% | utilization of substrate by UGT 1A7 [9]: detectable levels of utilization above background | utilization of substrate by UGT 1A4 [10]: did not utilize either compound 3138 or 3478 to an appreciable extent | utilization of substrate by UGT 2B15 [11]: detectable levels of utilization above background | % utilization of substrate by UGT 1A10 [12]: over 50% | % utilization of substrate by UGT 1A9 [13]: over 50% | % utilization of substrate by UGT 1A8 [14]: over 50% | utilization by tissue microsomes compared with control 1A1 Supersomes [15]: utilized much more of compound 3138 than the control 1A1 Supersomes | % utilization of substrate by UGT 2B7 [16]: over 50% | conversion of substrate by intact hepatocytes [17]: Conversion of the PBI 3138 was seen
